Assay results published in patent US8053444B2 (Lek Pharmaceuticals d.d., priority 2007, dated 2011).

Columns and labels:
[1] = Stress stability testing in vials, sirolimus impurities by HPLC; assay type: physicochemical; parameters: Total sum of impurities / Max.unknown impurity: unit not given here
Experimental: The origination of a solid solution of sirolimus was checked by X-ray diffraction analysis and Raman microscopy. […] These were exposed then to stress stability testing at 60° C. for 14 days and at 40° C. and 75% relative humidity for one month in vials. The amount of degradation products formed was compared to the samples of commercially available tablets comprising sirolimus.
The HPLC analyses were performed with a Waters system equipped with a Synergi Max-RP, 5 μm, 250×4.6 mm column which was maintained in a column oven at 40° C. The mobile phase consisted of a 40:54:6 (V/V/V) mixture of CF3COOH/NaOH with pH 2.5, acetonitrile and water. The flow rate was 1.4 mL/min, and the detection wavelength was 278 nm.
For the stability studies, two solid solutions were prepared using ethanol-soluble polymers polyvinylpyrrolidone (PVP) or hydroxypropylcellulose (HPC). The chemical stability was monitored for 14 days at 60° C. and 1 month at 40° C. and 75% relative humidity. The samples were stored in vials.

[2] = as above; assay type: physicochemical; parameters: unit not given here; settings: 7 days, 60° C.
[3] = Solubility of sirolimus in water; settings: volume of 250 ml of gastrointestinal fluid
[4] = 1 month, 40° C./75% relative humidity, in vials

| Max.unknown impurity [1, 4] | Total sum of impurities [1, 4] | Max.unknown impurity ([1]; 14 days, 60° C., in vials) | Total sum of impurities ([1]; 14 days, 60° C., in vials) | Max.unknown impurity ([1]; time of testing 0) | Total sum of impurities ([1]; time of testing 0) | chemical stability of sirolimus, comparison in words ([1]; stress stability testing, comparison between samples of Table 3) | Max.unknown impurity [2] | Total sum of impurities [2] | amount of sirolimus dissolved in gastrointestinal fluid [3] | Compound |
| --- | --- | --- | --- | --- | --- | --- | --- | --- | --- | --- |
| 0.26 | 0.59 | 0.26 | 0.60 | 0.19 | 0.70 |  |  |  |  | CO[C@H]1C[C@@H]2CC[C@@H](C)[C@@](O)(O2)C(=O)C(=O)N2CCCC[C@H]2C(=O)O[C@H]([C@H](C)C[C@@H]2CC[C@@H](O)[C@H](OC)C2)CC(=O)[C@H](C)/C=C(\C)[C@@H](O)[C@@H](OC)C(=O)[C@H](C)C[C@H](C)/C=C/C=C/C=C/1C [Substance in a crystal form, sirolimus] |
|  |  |  |  | 0.25 | 3.34 | significantly less stable | 1.91 | 9.09 |  | CO[C@H]1C[C@@H]2CC[C@@H](C)[C@@](O)(O2)C(=O)C(=O)N2CCCC[C@H]2C(=O)O[C@H]([C@H](C)C[C@@H]2CC[C@@H](O)[C@H](OC)C2)CC(=O)[C@H](C)/C=C(\C)[C@@H](O)[C@@H](OC)C(=O)[C@H](C)C[C@H](C)/C=C/C=C/C=C/1C [Example 1, sirolimus] |
|  |  |  |  |  |  |  |  |  | about 0.65 mg | CO[C@H]1C[C@@H]2CC[C@@H](C)[C@@](O)(O2)C(=O)C(=O)N2CCCC[C@H]2C(=O)O[C@H]([C@H](C)C[C@@H]2CC[C@@H](O)[C@H](OC)C2)CC(=O)[C@H](C)/C=C(\C)[C@@H](O)[C@@H](OC)C(=O)[C@H](C)C[C@H](C)/C=C/C=C/C=C/1C [Sirolimus, (3S,6R,7E,9R,10R,12R,14S,15E,17E,19E,21S,23S,26R,27R,34aS)-9,10,12,13, -14,21,22,23,24,25,26,27,32,33,34,34a-hexadecahydro-9,27-dihydroxy-3-[(1R)-2-[(1S,3R,4R)-4-hydroxy-3-methoxycyclohexyl]-1-methylethyl]-10,21-dimethox-y-6,8,12,14,20,26-hexamethyl-23,27-epoxy-3H-pyrido[2,1-c][1,4]oxaazacycloh-entriacontine-1,5,11,28,29(4H,6H,31H)-pentone] |
